Experimental data taken from US7183260B2, “C-terminal modified oxamyl dipeptides as inhibitors of the ICE/ced-3 family of cysteine proteases” (Idun Pharmaceuticals, Inc., priority 1998, dated 2007).
Where two headings read alike, the source gives them in different places.

What was measured:
Format in all cases: biochemical
[1] = target: T1, MCH-2 (Homo sapiens, UniProt P55212); assay: Dissociation constant Ki and irreversible rate constant k3 for irreversible inhibitors (Mch2)
T1 sequence (P55212 24-179 limits assumed): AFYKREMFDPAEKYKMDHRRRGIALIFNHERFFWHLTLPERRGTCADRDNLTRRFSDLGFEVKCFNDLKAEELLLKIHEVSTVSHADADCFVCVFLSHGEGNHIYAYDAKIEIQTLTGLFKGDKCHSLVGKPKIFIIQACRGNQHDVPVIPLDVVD
T1 sequence (P55212 194-293 limits assumed): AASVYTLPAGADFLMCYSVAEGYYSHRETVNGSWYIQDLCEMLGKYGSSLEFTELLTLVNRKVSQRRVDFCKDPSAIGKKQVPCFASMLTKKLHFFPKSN

[2] = target: T2, CPP32 (Homo sapiens, UniProt P42574); assay: Dissociation constant Ki and irreversible rate constant k3 for irreversible inhibitors (CPP32)
T2 sequence (P42574 29-175 limits assumed): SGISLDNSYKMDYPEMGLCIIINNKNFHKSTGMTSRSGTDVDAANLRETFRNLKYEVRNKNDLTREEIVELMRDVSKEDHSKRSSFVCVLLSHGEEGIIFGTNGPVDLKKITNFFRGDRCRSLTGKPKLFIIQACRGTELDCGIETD
T2 sequence (P42574 176-277 limits assumed): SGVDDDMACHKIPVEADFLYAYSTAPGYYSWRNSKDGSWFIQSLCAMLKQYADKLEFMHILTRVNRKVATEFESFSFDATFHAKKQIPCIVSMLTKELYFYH

[3] = target: T3, mICE (Mus musculus, UniProt P29452); assay: Dissociation constant Ki and irreversible rate constant k3 for irreversible inhibitors (ICE)
T3 sequence (P29452 123-296 limits assumed): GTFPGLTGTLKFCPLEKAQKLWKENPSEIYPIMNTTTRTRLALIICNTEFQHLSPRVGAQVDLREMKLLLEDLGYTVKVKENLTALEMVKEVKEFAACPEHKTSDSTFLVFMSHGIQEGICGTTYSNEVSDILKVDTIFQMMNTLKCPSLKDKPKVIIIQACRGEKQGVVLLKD
T3 sequence (P29452 315-402 limits assumed): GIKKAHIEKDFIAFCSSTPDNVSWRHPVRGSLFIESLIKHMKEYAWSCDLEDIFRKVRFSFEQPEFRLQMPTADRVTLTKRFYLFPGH

[4] = target: MCH-5 (Homo sapiens, UniProt Q14790); assay: Dissociation constant Ki and irreversible rate constant k3 for irreversible inhibitors (Mch5)
[5] = continuous assay 60 min, reaction initiated by adding enzyme to substrate-inhibitor mixture

MCH-5, sequence (Q14790 217-374 limits assumed, species assumed): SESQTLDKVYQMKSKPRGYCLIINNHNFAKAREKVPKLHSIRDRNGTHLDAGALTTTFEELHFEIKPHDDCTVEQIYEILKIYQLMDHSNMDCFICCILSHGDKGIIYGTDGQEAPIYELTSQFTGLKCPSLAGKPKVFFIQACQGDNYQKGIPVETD
MCH-5, sequence (Q14790 385-479 limits assumed, species assumed): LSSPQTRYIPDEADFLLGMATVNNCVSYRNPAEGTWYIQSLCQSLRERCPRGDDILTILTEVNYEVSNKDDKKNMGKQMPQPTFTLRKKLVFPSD

Row | Structure (SMILES) | Ki [1] [nM] | MCH-2 k3/Ki [1] | CPP32 k3/Ki [2] | Ki [2] [nM] | Ki [3] [nM] | mICE k3/Ki [3] | Ki [4] [nM] | MCH-5 k3/Ki [4] | Ki [1, 5] [nM] | MCH-2 k3/Ki [1, 5] | CPP32 k3/Ki [2, 5] | Ki [2, 5] [nM] | Ki [3, 5] [nM] | mICE k3/Ki [3, 5] | Ki [4, 5] [nM] | MCH-5 k3/Ki [4, 5]
1 | C[C@H](NC(=O)C(=O)NC12CC3CC(CC(C3)C1)C2)C(=O)N[C@@H](CC(=O)O)C(=O)COP(=O)(c1ccccc1)c1ccccc1 [Example 53] | 42 | 124,000 moles^−1 seconds^−1 | 149,000 moles^−1 seconds^−1 | 134 | 462 | 27,600 moles^−1 seconds^−1 | 77 | 50,400 moles^−1 seconds^−1 |  |  |  |  |  |  |  | 
2 | C[C@H](NC(=O)C(=O)NC12CC3CC(CC(C3)C1)C2)C(=O)N[C@@H](CC(=O)O)C(=O)COC(=O)c1c(Cl)cccc1Cl [Example 54] | 120 | 21,100 moles^−1 seconds^−1 | 20,500 moles^−1 seconds^−1 | 409 | 348 | 46,000 moles^−1 seconds^−1 | 80 | 18,700 moles^−1 seconds^−1 |  |  |  |  |  |  |  | 
3 | C[C@H](NC(=O)C(=O)Nc1ccccc1Cl)C(=O)N[C@@H](CC(=O)O)C(=O)COP(=O)(c1ccccc1)c1ccccc1 [Example 41] |  |  |  |  |  |  |  |  | 11 | 247,000 moles^−1 seconds^−1 | 162,000 moles^−1 seconds^−1 | 35 | 140 | 103,000 moles^−1 seconds^−1 | 27 | 179,000 moles^−1 seconds^−1
4 | C[C@H](NC(=O)C(=O)NCc1cccc2ccccc12)C(=O)N[C@@H](CC(=O)O)C(=O)COP(=O)(c1ccccc1)c1ccccc1 [Example 35] |  |  |  |  |  |  |  |  | 11 | 186,000 moles^−1 seconds^−1 | 245,000 moles^−1 seconds^−1 | 22 | 35 | 191,000 moles^−1 seconds^−1 | 23 | 82,700 moles^−1 seconds^−1
5 | C[C@H](NC(=O)C(=O)Nc1ccccc1-c1ccccc1)C(=O)N[C@@H](CC(=O)O)C(=O)COc1ccccc1F [Example 28] |  |  |  |  |  |  |  |  | 42 | 35,000 moles^−1 seconds^−1 | 55,600 moles^−1 seconds^−1 | 109 | 46 | 167,000 moles^−1 seconds^−1 | 5.8 | 37,800 moles^−1 seconds^−1
6 | C[C@H](NC(=O)C(=O)Nc1ccccc1I)C(=O)N[C@@H](CC(=O)O)C(=O)COC(=O)c1c(Cl)cccc1Cl [Example 38] |  |  |  |  |  |  |  |  | 6 | 360,000 moles^−1 seconds^−1 | 942,000 moles^−1 seconds^−1 | 13 | 152 | 90,100 moles^−1 seconds^−1 | 6 | 337,000 moles^−1 seconds^−1
7 | CC(C)[C@H](NC(=O)C(=O)Nc1ccccc1C(F)(F)F)C(=O)N[C@@H](CC(=O)O)C(=O)COc1c(F)c(F)cc(F)c1F [Example 92] |  |  |  |  |  |  |  |  | 12 | 261,000 moles^−1 seconds^−1 | 57,400 moles^−1 seconds^−1 | 175 | 11 | 1,044,000 moles^−1 seconds^−1 | 6 | 41,000 moles^−1 seconds^−1
8 | C[C@H](NC(=O)C(=O)Nc1ccccc1C(C)(C)C)C(=O)N[C@@H](CC(=O)O)C(=O)COC(=O)c1c(Cl)cccc1Cl [Example 76] |  |  |  |  |  |  |  |  | 235 | 6,960 moles^−1 seconds^−1 | 62,900 moles^−1 seconds^−1 | 85 | 19 | 537,000 moles^−1 seconds^−1 | 22 | 30,200 moles^−1 seconds^−1
9 | C[C@H](NC(=O)C(=O)NCCc1ccccc1)C(=O)N[C@@H](CC(=O)O)C(=O)COP(=O)(c1ccccc1)c1ccccc1 [Example 72] |  |  |  |  |  |  |  |  | 26 | 131,000 moles^−1 seconds^−1 | 169,000 moles^−1 seconds^−1 | 94 | 12 | 1,230,000 moles^−1 seconds^−1 | 8.1 | 667,000 moles^−1 seconds^−1
10 | C[C@H](NC(=O)C(=O)Nc1ccc(F)cc1)C(=O)N[C@@H](CC(=O)O)C(=O)COC(=O)c1c(Cl)cccc1Cl [Example 44] |  |  |  |  |  |  |  |  | 142 | 18,600 moles^−1 seconds^−1 | 22,700 moles^−1 seconds^−1 | 1280 | 1450 | 11,700 moles^−1 seconds^−1 | 462 | 18,700 moles^−1 seconds^−1
11 | CC(C)[C@H](NC(=O)C(=O)NC12CC3CC(CC(C3)C1)C2)C(=O)N[C@@H](CC(=O)O)C(=O)COc1c(F)c(F)cc(F)c1F [Example 89] |  |  |  |  |  |  |  |  | 152 | 10,700 moles^−1 seconds^−1 | 6,330 moles^−1 seconds^−1 | 1510 | 52 | 184,000 moles^−1 seconds^−1 | 40 | 59,900 moles^−1 seconds^−1
12 | C[C@H](NC(=O)C(=O)Nc1ccccc1-c1ccccc1)C(=O)N[C@@H](CC(=O)O)C(=O)COP(=O)(c1ccccc1)c1ccccc1 [Example 30] |  |  |  |  |  |  |  |  | 25 | 317,000 moles^−1 seconds^−1 | 243,000 moles^−1 seconds^−1 | 42 | 22 | 345,000 moles^−1 seconds^−1 | 24 | 207,000 moles^−1 seconds^−1
13 | CC(C)[C@H](NC(=O)C(=O)Nc1cccc2ccccc12)C(=O)N[C@@H](CC(=O)O)C(=O)COP(C)(=O)c1ccccc1 (stereo partly drawn) [Example 10] |  |  |  |  |  |  |  |  | 11 |  |  | 19 | 6.5 |  | 5.4 | 
14 | CCCCCCCc1ccc(NC(=O)C(=O)N[C@H](C(=O)N[C@@H](CC(=O)O)C(=O)COc2c(F)c(F)cc(F)c2F)C(C)C)cc1 [Example 94] |  |  |  |  |  |  |  |  | 59 | 50,000 moles^−1 seconds^−1 | 11,200 moles^−1 seconds^−1 | 1110 | 24 | 657,000 moles^−1 seconds^−1 | 12 | 155,000 moles^−1 seconds^−1
15 | C[C@H](NC(=O)C(=O)Nc1ccccc1I)C(=O)N[C@@H](CC(=O)O)C(=O)COC(=O)c1c(Cl)cccc1Cl [Example 75] |  |  |  |  |  |  |  |  | 34 | 28,200 moles^−1 seconds^−1 | 67,600 moles^−1 seconds^−1 | 105 | 13 | 1,270,000 moles^−1 seconds^−1 | 4 | 551,000 moles^−1 seconds^−1
16 | CC(C)[C@H](NC(=O)C(=O)Nc1c(F)cccc1F)C(=O)N[C@@H](CC(=O)O)C(=O)COc1c(F)c(F)cc(F)c1F [Example 108] |  |  |  |  |  |  |  |  | 8 | 1,083,000 moles^−1 seconds^−1 | 62,900 moles^−1 seconds^−1 | 102 | 4.8 | 2,680,000 moles^−1 seconds^−1 | 1.9 | 1,830,000 moles^−1 seconds^−1
17 | CC(C)[C@H](NC(=O)C(=O)Nc1ccncc1)C(=O)N[C@@H](CC(=O)O)C(=O)COc1c(F)c(F)cc(F)c1F [Example 101] |  |  |  |  |  |  |  |  | 641 | 5,580 moles^−1 seconds^−1 | 511 mol⁻¹ s⁻¹ | 26100 | 22600 | 912 mol⁻¹ s⁻¹ | 1550 | 1,140 moles^−1 seconds^−1
